Read-outs that look alike come from different tables or passages of the source.
Tests used:
Test in all cases: In vitro competitive activity-based protein profiling (gel-based, FP-Rh or HT-01 probe)
Assay type in all cases: biochemical
FAAH = target: T1, FAAH (Mus musculus, UniProt O08914); details: for inhibition at 10 µM: 10 μM inhibitor, read-out: % Inhibition at 10 μM, B = FAAH; for inhibition at 1 µM: 1 μM inhibitor, read-out: % Inhibition at 1 μM, B = FAAH; for IC50: mouse brain membrane fraction or cell lysates, 30 min preincubation at 37° C., read-out: Mouse (IC50 value, nM) FAAH
T1 construct: Proteomes (mouse brain membrane fraction or cell lysates); from tissue; host or cells: mouse brain membrane fraction (or cell lysates, not specified)
T1 sequence (O08914 1-579): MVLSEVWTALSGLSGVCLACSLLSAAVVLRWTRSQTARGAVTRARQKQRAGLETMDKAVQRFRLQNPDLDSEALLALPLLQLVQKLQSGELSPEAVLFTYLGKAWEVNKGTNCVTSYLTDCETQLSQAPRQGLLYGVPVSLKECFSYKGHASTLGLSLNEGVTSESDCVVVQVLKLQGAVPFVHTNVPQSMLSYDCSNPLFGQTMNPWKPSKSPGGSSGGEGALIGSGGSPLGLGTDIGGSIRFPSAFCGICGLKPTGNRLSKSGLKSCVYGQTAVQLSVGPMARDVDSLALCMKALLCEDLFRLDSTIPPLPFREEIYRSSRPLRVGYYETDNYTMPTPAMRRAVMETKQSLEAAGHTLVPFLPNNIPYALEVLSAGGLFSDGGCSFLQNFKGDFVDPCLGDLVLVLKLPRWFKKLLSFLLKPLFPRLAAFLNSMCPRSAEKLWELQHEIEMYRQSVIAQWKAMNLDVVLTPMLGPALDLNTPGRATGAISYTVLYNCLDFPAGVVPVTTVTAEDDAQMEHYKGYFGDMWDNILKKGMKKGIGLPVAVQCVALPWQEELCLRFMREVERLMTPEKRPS
Procedure: (§1) In Vitro Competitive Activity-Based Protein Profiling.
(§2) Proteomes (mouse brain membrane fraction or cell lysates) (50 μL, 1.0 mg/mL total protein concentration) were preincubated with varying concentrations of inhibitors at 37° C. After 30 min, FP-Rh or HT-01 ([…], 50 μM in DMSO) was added and the mixture was incubated for another 30 min at 37° C. Reactions were quenched with SDS loading buffer (15 μL—4×) and run on SDS-PAGE. Following gel imaging, serine hydrolase activity was determined by measuring fluorescent intensity of gel bands corresponding to MAGL, ABHD6, FAAH, and PLA2G7 using ImageJ 1.43u software.

MAGL = target: T2, MAGL (Mus musculus, UniProt O35678); details: for inhibition at 10 µM: 10 μM inhibitor; for inhibition at 1 µM: 1 μM inhibitor; for IC50: mouse brain membrane fraction or cell lysates, 30 min preincubation at 37° C., read-out: Mouse (IC50 value, nM) MAGL
T2 construct: Proteomes (mouse brain membrane fraction or cell lysates); from tissue; host or cells: mouse brain membrane fraction (or cell lysates, not specified)
T2 sequence (O35678 1-303): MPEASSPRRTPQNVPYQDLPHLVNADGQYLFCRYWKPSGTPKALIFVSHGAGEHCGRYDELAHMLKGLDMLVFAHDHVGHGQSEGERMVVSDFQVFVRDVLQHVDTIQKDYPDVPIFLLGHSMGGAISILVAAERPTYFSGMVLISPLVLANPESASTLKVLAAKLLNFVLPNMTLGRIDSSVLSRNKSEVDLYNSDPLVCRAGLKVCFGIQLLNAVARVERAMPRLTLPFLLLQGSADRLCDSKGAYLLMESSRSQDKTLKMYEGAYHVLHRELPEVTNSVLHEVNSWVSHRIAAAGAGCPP
Procedure: as §1, §2

ABHD6 = target: T3, ABHD6 (Mus musculus, UniProt Q8R2Y0); details: for inhibition at 1 µM: 1 μM inhibitor, read-out: % Inhibition at 1 μM, C = ABHD6; for inhibition at 10 µM: 10 μM inhibitor, read-out: % Inhibition at 10 μM, C = ABHD6; for IC50: mouse brain membrane fraction or cell lysates, 30 min preincubation at 37° C., read-out: Mouse (IC50 value, nM) ABHD6
T3 construct: Proteomes (mouse brain membrane fraction or cell lysates); from tissue; host or cells: mouse brain membrane fraction (or cell lysates, not specified)
T3 sequence (Q8R2Y0 1-336): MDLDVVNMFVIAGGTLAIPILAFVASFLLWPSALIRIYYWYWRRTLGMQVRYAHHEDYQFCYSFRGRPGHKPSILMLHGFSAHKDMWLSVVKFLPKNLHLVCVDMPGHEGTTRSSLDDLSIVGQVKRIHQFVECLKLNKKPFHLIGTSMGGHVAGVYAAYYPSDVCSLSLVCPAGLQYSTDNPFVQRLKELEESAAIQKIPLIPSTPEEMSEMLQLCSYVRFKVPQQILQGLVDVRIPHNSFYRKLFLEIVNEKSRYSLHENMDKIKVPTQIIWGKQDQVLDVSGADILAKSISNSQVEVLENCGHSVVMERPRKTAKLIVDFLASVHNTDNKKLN
Procedure: as §1, §2

PLA2G7 = target: T4, PLA2G7 (Mus musculus, UniProt Q60963); details: for inhibition at 1 µM: 1 μM inhibitor, read-out: % Inhibition at 1 μM, D = PLA2G7; for inhibition at 10 µM: 10 μM inhibitor, read-out: % Inhibition at 10 μM, D = PLA2G7; for IC50: mouse brain membrane fraction or cell lysates, 30 min preincubation at 37° C.
T4 construct: Proteomes (mouse brain membrane fraction or cell lysates); from tissue; host or cells: mouse brain membrane fraction (or cell lysates, not specified)
T4 sequence (Q60963 22-440): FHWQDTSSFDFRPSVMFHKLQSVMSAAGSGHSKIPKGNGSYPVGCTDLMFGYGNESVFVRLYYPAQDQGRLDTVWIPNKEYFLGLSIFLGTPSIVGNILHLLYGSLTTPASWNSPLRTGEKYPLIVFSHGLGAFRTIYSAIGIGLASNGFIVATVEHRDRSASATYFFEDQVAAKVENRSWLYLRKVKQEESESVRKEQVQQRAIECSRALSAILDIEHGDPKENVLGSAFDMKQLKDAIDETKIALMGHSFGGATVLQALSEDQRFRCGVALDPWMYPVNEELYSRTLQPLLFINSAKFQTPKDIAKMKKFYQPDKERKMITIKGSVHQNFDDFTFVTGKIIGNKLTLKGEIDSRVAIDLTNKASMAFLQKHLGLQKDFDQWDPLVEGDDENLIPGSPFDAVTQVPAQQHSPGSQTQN
Procedure: as §1, §2

| Structure (SMILES) | inhibition at 10 µM (FAAH) [%] | inhibition at 10 µM (MAGL) [%] | inhibition at 1 µM (ABHD6) [%] | inhibition at 10 µM (ABHD6) [%] | inhibition at 1 µM (PLA2G7) [%] | inhibition at 10 µM (PLA2G7) [%] | inhibition at 1 µM (FAAH; gel-based competitive ABPP) [%] | inhibition at 10 µM (FAAH; gel-based competitive ABPP) [%] | inhibition at 1 µM (MAGL; gel-based competitive ABPP) [%] | inhibition at 10 µM (MAGL; gel-based competitive ABPP) [%] | inhibition at 1 µM (ABHD6; gel-based competitive ABPP) [%] | inhibition at 10 µM (ABHD6; gel-based competitive ABPP) [%] | inhibition at 1 µM (PLA2G7; gel-based competitive ABPP) [%] | inhibition at 10 µM (PLA2G7; gel-based competitive ABPP) [%] | inhibition at 1 µM (FAAH) [%] | inhibition at 1 µM (MAGL) [%] | IC50 (FAAH) [nM] | IC50 (MAGL) [nM] | IC50 (ABHD6) [nM] | IC50 (PLA2G7) [nM] |
| --- | --- | --- | --- | --- | --- | --- | --- | --- | --- | --- | --- | --- | --- | --- | --- | --- | --- | --- | --- | --- |
| O=C(c1cnn(C(=O)N2CCN(Cc3cncnc3)CC2)c1)N1CCC1 [Example 92, Azetidin-1-yl(1-(4-(pyrimidin-5-ylmethyl)piperazine-1-carbonyl)-1H-pyrazol-4-yl)methanone] | < 25 | < 25 | < 25 | > 75 | < 25 | > 75 | – | – | – | – | – | – | – | – | – | – | – | – | – | – |
| N#Cc1cnn(C(=O)N2CCN(Cc3ccc(C(=O)N4CCC4)cc3Cl)CC2)c1 [Example 283, 1-(4-(4-(Azetidine-1-carbonyl)-2-chlorobenzyl)piperazine-1-carbonyl)-1H-pyrazole-4-carbonitrile] | – | – | – | – | – | – | > 75 | > 75 | > 75 | > 75 | > 75 | > 75 | > 75 | > 75 | – | – | – | – | – | – |
| Cc1cnn(C(=O)N(C)CCN(C)C(=O)OC(C)(C)C)c1 [Example 29, tert-Butyl (2-(N,4-dimethyl-1H-pyrazole-1-carboxamido)ethyl)(methyl)carbamate] | 25 to 75 | 25 to 75 | < 25 | > 75 | < 25 | < 25 | – | – | – | – | – | – | – | – | < 25 | < 25 | – | – | – | – |
| O=C(c1cnn(C(=O)N2CCN(Cc3ccccn3)CC2)c1)N1CCCCC1 [Example 72, Piperidin-1-yl(1-(4-(pyridin-2-ylmethyl)piperazine-1-carbonyl)-1H-pyrazol-4-yl)methanone] | > 75 | < 25 | < 25 | > 75 | > 75 | > 75 | – | – | – | – | – | – | – | – | < 25 | < 25 | – | – | – | – |
| O=C(N1CCN(Cc2ccc3ccccc3c2)CC1)n1cc(I)cn1 [Example 14, (4-Iodo-1H-pyrazol-1-yl)(4-(naphthalen-2-ylmethyl)piperazin-1-yl)methanone] | > 75 | > 75 | > 75 | > 75 | > 75 | > 75 | – | – | – | – | – | – | – | – | > 75 | > 75 | – | – | – | – |
| CCN(Cc1cccc(C)c1)C(=O)n1cc(C#N)cn1 [Example 246, 4-Cyano-N-ethyl-N-(3-methylbenzyl)-1H-pyrazole-1-carboxamide] | – | – | – | – | – | – | > 75 | – | > 75 | – | > 75 | – | < 25 | – | – | – | < 100 | 100 to 1000 | 100 to 1000 | > 1000 |
| O=C(N1CCN(Cc2c(N3CCCC3)cccc2C(F)(F)F)CC1)n1cc(C(F)(F)F)cn1 [Example 110, (4-(2-(Pyrrolidin-1-yl)-6-(trifluoromethyl)benzyl)piperazin-1-yl)(4-(trifluoromethyl)-1H-pyrazol-1-yl)methanone] | > 75 | > 75 | > 75 | > 75 | > 75 | > 75 | – | – | – | – | – | – | – | – | < 25 | > 75 | > 1000 | < 100 | < 100 | – |
| O=C(N1CCN(c2cccc(Cl)c2)CC1)n1cc(C(F)(F)F)cn1 [Example 228, (4-(3-Chlorophenyl)piperazin-1-yl)(4-(trifluoromethyl)-1H-pyrazol-1-yl)methanone] | > 75 | > 75 | > 75 | > 75 | > 75 | > 75 | – | – | – | – | – | – | – | – | > 75 | > 75 | – | – | – | – |
| O=C(N1CCN(Cc2ccccc2N2CCCC2)CC1)n1cc(C(F)(F)F)cn1 [Example 280, (4-(2-(Pyrrolidin-1-yl)benzyl)piperazin-1-yl)(4-(trifluoromethyl)-1H-pyrazol-1-yl)methanone] | – | – | – | – | – | – | > 75 | – | > 75 | – | > 75 | – | > 75 | – | – | – | 100 to 1000 | < 100 | 100 to 1000 | < 100 |
| Cc1cnn(C(=O)N(C)CCN(C)Cc2ccccc2)c1 [Example 171, N-(2-(Benzyl(methyl)amino)ethyl)-N,4-dimethyl-1H-pyrazole-1-carboxamide] | < 25 | < 25 | – | < 25 | – | < 25 | – | – | – | – | – | – | – | – | – | – | – | – | – | – |
| Cc1cnn(C(=O)N(C)CCN(C)C(=O)c2ccccc2)c1 [Example 172, N,4-Dimethyl-N-(2-(N-methylbenzamido)ethyl)-1H-pyrazole-1-carboxamide] | < 25 | < 25 | – | < 25 | – | < 25 | – | – | – | – | – | – | – | – | – | – | – | – | – | – |
| N#Cc1cnn(C(=O)N2CCN(Cc3ccc(OCc4ccccc4)cc3)CC2)c1 [Example 21, 1-(4-(4-(Benzyloxy)benzyl)piperazine-1-carbonyl)-1H-pyrazole-4-carbonitrile] | > 75 | > 75 | > 75 | > 75 | < 25 | > 75 | – | – | – | – | – | – | – | – | > 75 | > 75 | < 100 | < 100 | < 100 | – |
| COc1ccccc1-c1ccc(-c2cnn(C(=O)N3CCCC3)c2)cc1 [Example 107, (4-(2′-Methoxy-[1,1′-biphenyl]-4-yl)-1H-pyrazol-1-yl)(pyrrolidin-1-yl)methanone] | < 25 | > 75 | > 75 | > 75 | < 25 | 25 to 75 | – | – | – | – | – | – | – | – | < 25 | < 25 | – | – | 100 to 1000 | – |
